Data set [1] in a line: Stability in human liver microsomes assessed as drug recovery after 30 mins. It counts as ADME, microsome. The conditions noted are these: read-out: Drug recovery. In general terms: Liver microsomes are vesicles of endoplasmic reticulum, rich in cytochrome P450 enzymes.
A short description of data set [2]: Oral bioavailability in rat at 10 mg/kg dosed as microcrystalline suspension. As to conditions: in vivo. Format: ADME, organism-based.
Data set [3] is described as follows: Blood clearance in rat at 1.25 mg/kg, iv administered as bolus dose. As to conditions: whole blood. It counts as ADME, organism-based.
In data set [4] the target is T1, Glucocorticoid receptor (Homo sapiens, UniProt P04150).
T1 sequence (P04150 whole entry): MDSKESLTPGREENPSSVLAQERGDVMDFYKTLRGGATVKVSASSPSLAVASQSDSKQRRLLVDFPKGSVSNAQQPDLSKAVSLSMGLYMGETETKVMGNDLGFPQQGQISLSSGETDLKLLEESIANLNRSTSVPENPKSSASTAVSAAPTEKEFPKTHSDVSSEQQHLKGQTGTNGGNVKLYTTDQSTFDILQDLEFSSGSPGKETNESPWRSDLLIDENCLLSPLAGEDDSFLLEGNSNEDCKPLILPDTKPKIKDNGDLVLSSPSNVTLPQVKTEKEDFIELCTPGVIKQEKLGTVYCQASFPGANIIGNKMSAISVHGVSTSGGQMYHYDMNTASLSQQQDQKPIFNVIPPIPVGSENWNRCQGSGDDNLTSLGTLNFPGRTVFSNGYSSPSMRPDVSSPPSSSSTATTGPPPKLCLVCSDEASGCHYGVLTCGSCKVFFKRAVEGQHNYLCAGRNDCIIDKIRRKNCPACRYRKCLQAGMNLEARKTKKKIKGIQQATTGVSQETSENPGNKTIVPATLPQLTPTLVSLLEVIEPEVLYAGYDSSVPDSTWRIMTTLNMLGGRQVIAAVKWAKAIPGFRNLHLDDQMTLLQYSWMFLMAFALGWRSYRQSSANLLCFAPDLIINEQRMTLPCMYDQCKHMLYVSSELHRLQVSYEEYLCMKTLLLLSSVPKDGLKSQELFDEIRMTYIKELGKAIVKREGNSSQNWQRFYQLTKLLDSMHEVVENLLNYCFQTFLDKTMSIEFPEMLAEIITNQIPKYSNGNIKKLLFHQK
Description: Transactivation activity at glucocorticoid receptor in human HeLa cells assessed as induction of MMTV promoter activity by luciferase reporter gene assay. It counts as cell-based. For orientation: Reporter assays use an easily measured gene product as a stand-in for the process of interest.

The next data set deals with T2, Progesterone receptor (Homo sapiens, UniProt P06401).
T2 sequence (P06401 whole entry): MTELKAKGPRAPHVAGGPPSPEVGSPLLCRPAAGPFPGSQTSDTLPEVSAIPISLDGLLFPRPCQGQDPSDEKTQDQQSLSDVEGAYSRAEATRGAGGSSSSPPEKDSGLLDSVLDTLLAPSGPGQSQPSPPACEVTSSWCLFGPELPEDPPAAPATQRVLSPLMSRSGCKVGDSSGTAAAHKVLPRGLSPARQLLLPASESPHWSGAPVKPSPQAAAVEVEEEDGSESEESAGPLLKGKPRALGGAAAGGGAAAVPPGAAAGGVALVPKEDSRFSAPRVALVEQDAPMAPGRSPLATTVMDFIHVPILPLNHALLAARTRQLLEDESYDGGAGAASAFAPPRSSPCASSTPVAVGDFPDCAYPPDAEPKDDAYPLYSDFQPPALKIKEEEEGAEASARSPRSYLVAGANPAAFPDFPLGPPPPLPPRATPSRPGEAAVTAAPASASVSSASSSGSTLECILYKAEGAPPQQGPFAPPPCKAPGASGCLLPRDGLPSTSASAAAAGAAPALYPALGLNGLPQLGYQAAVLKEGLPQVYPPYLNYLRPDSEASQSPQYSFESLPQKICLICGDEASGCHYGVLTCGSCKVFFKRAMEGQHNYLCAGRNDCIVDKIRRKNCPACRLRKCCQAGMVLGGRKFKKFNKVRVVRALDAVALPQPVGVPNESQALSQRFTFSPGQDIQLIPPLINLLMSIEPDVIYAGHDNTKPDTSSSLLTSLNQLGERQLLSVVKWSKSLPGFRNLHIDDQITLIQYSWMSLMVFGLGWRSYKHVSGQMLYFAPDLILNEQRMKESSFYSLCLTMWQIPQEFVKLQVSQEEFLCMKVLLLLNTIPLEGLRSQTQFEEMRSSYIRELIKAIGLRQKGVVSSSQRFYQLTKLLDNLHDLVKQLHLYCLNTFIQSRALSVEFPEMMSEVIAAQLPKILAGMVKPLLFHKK
Description: Binding affinity to recombinant human progesterone receptor expressed in baculovirus infected sf9 cells.

The next data set relates to Rattus norvegicus. Description: Anti-inflammatory activity in po dosed Brown Norway rat assessed as inhibition of TMA-induced ear edema. Format: functional.
The target of data set [5] is T1, Glucocorticoid receptor. Briefly: Transrepression activity at glucocorticoid receptor in human THP1 cells assessed as receptor-mediated anti-inflammatory activity by measuring inhibition of LPS-induced IL-8 production. It counts as cell-based.
The nature of data set [6]: Thermodynamic solubility of the compound in 0.1 M phosphate buffer at pH 7.4 at 25 degC. The conditions noted are these: read-out: Therm_solubility. Format: physicochemical.
In data set [7] the target is T3, Mineralocorticoid receptor (Homo sapiens, UniProt P08235).
T3 sequence (P08235 whole entry): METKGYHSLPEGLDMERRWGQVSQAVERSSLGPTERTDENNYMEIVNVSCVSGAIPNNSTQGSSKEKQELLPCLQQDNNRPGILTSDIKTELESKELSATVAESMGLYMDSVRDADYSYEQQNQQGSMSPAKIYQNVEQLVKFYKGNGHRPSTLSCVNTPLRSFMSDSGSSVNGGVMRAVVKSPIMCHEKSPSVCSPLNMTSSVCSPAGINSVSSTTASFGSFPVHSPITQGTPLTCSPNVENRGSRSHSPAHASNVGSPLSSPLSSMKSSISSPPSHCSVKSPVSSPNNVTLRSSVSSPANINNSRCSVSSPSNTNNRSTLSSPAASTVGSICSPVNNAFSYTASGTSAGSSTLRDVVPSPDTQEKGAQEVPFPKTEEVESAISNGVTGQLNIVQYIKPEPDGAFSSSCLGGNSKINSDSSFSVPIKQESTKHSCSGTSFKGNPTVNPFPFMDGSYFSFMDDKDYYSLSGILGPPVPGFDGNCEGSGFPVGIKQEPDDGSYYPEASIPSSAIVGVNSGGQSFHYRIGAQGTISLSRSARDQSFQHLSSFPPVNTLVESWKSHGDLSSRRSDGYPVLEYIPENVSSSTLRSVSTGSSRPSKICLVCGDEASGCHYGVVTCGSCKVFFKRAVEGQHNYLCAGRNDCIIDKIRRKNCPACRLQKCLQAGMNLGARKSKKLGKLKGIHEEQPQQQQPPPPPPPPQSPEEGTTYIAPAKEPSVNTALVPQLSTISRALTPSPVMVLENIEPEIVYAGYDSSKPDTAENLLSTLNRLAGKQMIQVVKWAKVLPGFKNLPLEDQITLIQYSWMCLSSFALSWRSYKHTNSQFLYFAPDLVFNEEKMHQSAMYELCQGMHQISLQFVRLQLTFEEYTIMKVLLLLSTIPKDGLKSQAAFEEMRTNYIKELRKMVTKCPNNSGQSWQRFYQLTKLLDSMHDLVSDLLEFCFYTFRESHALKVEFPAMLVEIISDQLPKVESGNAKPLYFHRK
Description: Binding affinity to recombinant human mineralocorticoid receptor expressed in baculovirus infected sf9 cells.

The structures appear in SMILES notation. In brackets after ≈: the same amount, converted by molar mass.

For `CC[C@@H]1C[C@](O)(C(F)(F)F)[C@@H](Nc2cc(F)cc3nc(C)ncc23)c2ccc(F)c(O)c21`, the remaining at 0.5 h in data set [1] is 98%. Also, the bioavailability (usually dose-corrected exposure relative to a reference, in per cent) in data set [2] amounted to 59%. In addition, in [3], the clearance (in general, the rate of elimination divided by the concentration) was 26.7 mL/min/kg. For the same compound, the pEC50 – broadly, the EC50 on a negative log10 scale, so that one unit is a factor of ten – on Glucocorticoid receptor [4] stood at 7.6. Besides, the figures for the IC50 (at Progesterone receptor; on Glucocorticoid receptor [5]; in [7]) were over 1 µM, 0.00631 µM and over 1 µM, respectively. For the same compound, in the data set on Rattus norvegicus, the median effective dose (ED50) (as a rule, the dose at which the effect has come halfway, by size or by number of responders) was 1.3 mg/kg. For the same compound, in [6], the solubility thermodynamic worked out at 26 µg/mL (≈ 57.3 µM).

(Values after ChEMBL document CHEMBL4041544, “Discovery of new selective glucocorticoid receptor agonist leads” (Bioorg Med Chem Lett, 2017).)
